Data on 6 compounds can be found in ChEMBL document CHEMBL2086231, “Novel pleuromutilin derivatives as antibacterial agents: synthesis, biological evaluation and molecular docking studies” (2012).

What all share (format): functional
Experiment [1] has as its system Staphylococcus epidermidis. In words: Antibacterial activity against methicillin-resistant Staphylococcus epidermidis isolate cpu3889 after 18 to 20 hrs by agar dilution method. A general note: In agar dilution the substance is mixed into plates at graded concentrations.
Experiment [2] concerns Staphylococcus aureus. Nature of the experiment: Antibacterial activity against methicillin-resistant Staphylococcus aureus isolate cpu1098 after 18 to 20 hrs by agar dilution method.
Experiment [3] deals with Staphylococcus epidermidis. Nature of the experiment: Antibacterial activity against methicillin-resistant Staphylococcus epidermidis isolate cpu2736 after 18 to 20 hrs by agar dilution method.
The subject of experiment [4] is Staphylococcus epidermidis. In words: Antibacterial activity against methicillin-sensitive Staphylococcus epidermidis isolate cpu2089 after 18 to 20 hrs by agar dilution method.
For experiment [5], the system named is Staphylococcus aureus. Nature of the experiment: Antibacterial activity against methicillin-resistant Staphylococcus aureus isolate cpu0887 after 18 to 20 hrs by agar dilution method.
Experiment [6] concerns Staphylococcus epidermidis. Nature of the experiment: Ratio of amoxicillin MIC to compound MIC for methicillin-sensitive Staphylococcus epidermidis isolate cpu0315.
The test system of experiment [7] is Staphylococcus epidermidis. In words: Ratio of amoxicillin MIC to compound MIC for methicillin-sensitive Staphylococcus epidermidis isolate cpu0347.
In experiment [8] the test system is Staphylococcus aureus. Nature of the experiment: Ratio of amoxicillin MIC to compound MIC for methicillin-sensitive Staphylococcus aureus isolate cpu1344.
The test system of experiment [9] is Staphylococcus aureus. Nature of the experiment: Ratio of amoxicillin MIC to compound MIC for methicillin-sensitive Staphylococcus aureus isolate cpu1044.
The test system of experiment [10] is Staphylococcus epidermidis. In words: Antibacterial activity against methicillin-sensitive Staphylococcus epidermidis isolate cpu1561 after 18 to 20 hrs by agar dilution method.
For experiment [11], the system named is Staphylococcus aureus. In words: Antibacterial activity against methicillin-resistant Staphylococcus aureus isolate cpu0446 after 18 to 20 hrs by agar dilution method.
For experiment [12], the system named is Staphylococcus aureus. In words: Antibacterial activity against methicillin-resistant Staphylococcus aureus isolate cpu3256 after 18 to 20 hrs by agar dilution method.
The test system of experiment [13] is Staphylococcus epidermidis. Nature of the experiment: Ratio of amoxicillin MIC to compound MIC for methicillin-sensitive Staphylococcus epidermidis isolate cpu2089.
Experiment [14] concerns Staphylococcus aureus. Nature of the experiment: Ratio of amoxicillin MIC to compound MIC for methicillin-sensitive Staphylococcus aureus isolate cpu0587.
Experiment [15] deals with Staphylococcus aureus. In words: Antibacterial activity against methicillin-sensitive Staphylococcus aureus isolate cpu1344 after 18 to 20 hrs by agar dilution method.
The test system of experiment [16] is Staphylococcus epidermidis. In words: Antibacterial activity against methicillin-resistant Staphylococcus epidermidis isolate cpu3569 after 18 to 20 hrs by agar dilution method.
For experiment [17], the system named is Staphylococcus epidermidis. In words: Antibacterial activity against methicillin-sensitive Staphylococcus epidermidis isolate cpu0347 after 18 to 20 hrs by agar dilution method.
The test system of experiment [18] is Staphylococcus epidermidis. In words: Antibacterial activity against methicillin-sensitive Staphylococcus epidermidis isolate cpu0315 after 18 to 20 hrs by agar dilution method.
Experiment [19] concerns Staphylococcus aureus. In words: Antibacterial activity against methicillin-sensitive Staphylococcus aureus isolate cpu0587 after 18 to 20 hrs by agar dilution method.
The test system of experiment [20] is Staphylococcus aureus. Nature of the experiment: Antibacterial activity against methicillin-sensitive Staphylococcus aureus isolate cpu1044 after 18 to 20 hrs by agar dilution method.
Experiment [21] has as its system Staphylococcus aureus. Nature of the experiment: Ratio of amoxicillin MIC to compound MIC for methicillin-sensitive Staphylococcus aureus isolate cpu0211.
Experiment [22] relates to Staphylococcus epidermidis. Nature of the experiment: Ratio of amoxicillin MIC to compound MIC for methicillin-sensitive Staphylococcus epidermidis isolate cpu1561.
Experiment [23] deals with Staphylococcus aureus. In words: Antibacterial activity against methicillin-sensitive Staphylococcus aureus isolate cpu0211 after 18 to 20 hrs by agar dilution method.
Experiment [24] relates to Staphylococcus epidermidis. In words: Antibacterial activity against methicillin-resistant Staphylococcus epidermidis isolate cpu2623 after 18 to 20 hrs by agar dilution method.
In a further experiment the test system is Streptococcus pyogenes. In words: Antibacterial activity against Streptococcus pyogenes.
In experiment [25] the test system is Staphylococcus aureus. Nature of the experiment: Antibacterial activity against Staphylococcus aureus.
For a further experiment, the system named is Brachyspira pilosicoli. In words: Antibacterial activity against Brachyspira pilosicoli.

The term MIC denotes the least concentration at which growth counts as inhibited. The low end stands for inhibition by little substance, the high end for a need for much substance.

≈ marks a conversion by molar mass, not a printed value.

In the case of `C=C[C@]1(C)C[C@@H](OC(=O)CSCc2csc(NC(=O)CN3CCCCC3)n2)[C@]2(C)[C@H](C)CC[C@]3(CCC(=O)[C@H]32)[C@@H](C)[C@@H]1O`, the minimal inhibitory concentration (MIC) in [1] turned out to be 0.0625 µg/mL (≈ 0.0989 µM); against Staphylococcus aureus [2], 0.25 µg/mL (≈ 0.396 µM); in [3], 0.0625 µg/mL (≈ 0.0989 µM); in [4], 0.125 µg/mL (≈ 0.198 µM); against Staphylococcus aureus [5], 0.0625 µg/mL (≈ 0.0989 µM); in [10] it was 0.0625 µg/mL (≈ 0.0989 µM). Further, the MIC amounted to 0.5 µg/mL (≈ 0.791 µM) against Staphylococcus aureus [11]; 0.25 µg/mL (≈ 0.396 µM) against Staphylococcus aureus [12]; 0.0625 µg/mL (≈ 0.0989 µM) with Staphylococcus aureus [15]; 0.0625 µg/mL (≈ 0.0989 µM) in [16]; 0.0625 µg/mL (≈ 0.0989 µM) in experiment [17]; 0.0625 µg/mL (≈ 0.0989 µM) in [18]. Moreover, the MIC with Staphylococcus aureus [19] amounted to 2 µg/mL (≈ 3.17 µM); in the experiment on Staphylococcus aureus [20], 0.125 µg/mL (≈ 0.198 µM); against Staphylococcus aureus [23], 0.125 µg/mL (≈ 0.198 µM); in experiment [24], 0.0625 µg/mL (≈ 0.0989 µM). Also, the Ratio (in experiment [6]; in experiment [7]; in the experiment on Staphylococcus aureus [8]; with Staphylococcus aureus [9]; in experiment [13]; in the experiment with Staphylococcus aureus [14]) was 8 each time. Also, the Ratio (with Staphylococcus aureus [21]; in [22]) was 8 in each case.
Take `C=C[C@]1(C)C[C@@H](OC(=O)CSCc2csc(NC(=O)CNC3CCCCC3)n2)[C@]2(C)[C@H](C)CC[C@]3(CCC(=O)[C@H]32)[C@@H](C)[C@@H]1O`: the MIC was 1 µg/mL (≈ 1.55 µM) in [1]; 0.25 µg/mL (≈ 0.387 µM) against Staphylococcus aureus [2]; 1 µg/mL (≈ 1.55 µM) in experiment [3]; 0.25 µg/mL (≈ 0.387 µM) in [4]; 0.5 µg/mL (≈ 0.774 µM) against Staphylococcus aureus [5]; 8 µg/mL (≈ 12.4 µM) in experiment [10]. In addition, the MIC with Staphylococcus aureus [11] is 0.5 µg/mL (≈ 0.774 µM); against Staphylococcus aureus [12] it was 0.5 µg/mL (≈ 0.774 µM); with Staphylococcus aureus [15], 0.5 µg/mL (≈ 0.774 µM); in [16], 0.5 µg/mL (≈ 0.774 µM); in experiment [17], 0.5 µg/mL (≈ 0.774 µM); in [18], 1 µg/mL (≈ 1.55 µM). Further, the MIC with Staphylococcus aureus [19] came out at 0.25 µg/mL (≈ 0.387 µM); with Staphylococcus aureus [20], 0.5 µg/mL (≈ 0.774 µM); with Staphylococcus aureus [23] it was 0.25 µg/mL (≈ 0.387 µM); in experiment [24] it was 0.25 µg/mL (≈ 0.387 µM).
As to `C=C[C@]1(C)C[C@@H](OC(=O)CSCc2csc(NC(=O)CNCC(=O)OC)n2)[C@]2(C)[C@H](C)CC[C@]3(CCC(=O)[C@H]32)[C@@H](C)[C@@H]1O`, the MIC in experiment [1] turned out to be 1 µg/mL (≈ 1.57 µM); in the experiment on Staphylococcus aureus [2], 0.5 µg/mL (≈ 0.786 µM); in experiment [3], 0.5 µg/mL (≈ 0.786 µM); in experiment [4] it was 0.25 µg/mL (≈ 0.393 µM); with Staphylococcus aureus [5], 1 µg/mL (≈ 1.57 µM); in [10], 1 µg/mL (≈ 1.57 µM). The minimum inhibitory concentration (MIC) against Staphylococcus aureus [11] stood at 1 µg/mL (≈ 1.57 µM); in the experiment on Staphylococcus aureus [12], 0.5 µg/mL (≈ 0.786 µM); against Staphylococcus aureus [15], 0.5 µg/mL (≈ 0.786 µM); in [16] it was 0.5 µg/mL (≈ 0.786 µM); in [17] it was 0.5 µg/mL (≈ 0.786 µM); in experiment [18], 4 µg/mL (≈ 6.29 µM). The MIC against Staphylococcus aureus [19] came to 0.25 µg/mL (≈ 0.393 µM); in the experiment on Staphylococcus aureus [20] it was 0.5 µg/mL (≈ 0.786 µM); with Staphylococcus aureus [23] it was 0.25 µg/mL (≈ 0.393 µM); in experiment [24], 0.5 µg/mL (≈ 0.786 µM).
For the compound `CC1(C)S[C@@H]2[C@H](NC(=O)[C@H](N)c3ccc(O)cc3)C(=O)N2[C@H]1C(=O)O` [AMOXICILLIN], the MIC in [1] was found to be 8 µg/mL (≈ 21.9 µM); against Staphylococcus aureus [2], 4 µg/mL (≈ 10.9 µM); in experiment [3], 0.125 µg/mL (≈ 0.342 µM); in experiment [4], 0.125 µg/mL (≈ 0.342 µM); in the experiment on Staphylococcus aureus [5], 0.125 µg/mL (≈ 0.342 µM); in [10] it was 0.125 µg/mL (≈ 0.342 µM). Moreover, the MIC was found to be 4 µg/mL (≈ 10.9 µM) with Staphylococcus aureus [11]; 8 µg/mL (≈ 21.9 µM) with Staphylococcus aureus [12]; 1 µg/mL (≈ 2.74 µM) in the experiment on Staphylococcus aureus [15]; 8 µg/mL (≈ 21.9 µM) in experiment [16]; 8 µg/mL (≈ 21.9 µM) in experiment [17]; 0.125 µg/mL (≈ 0.342 µM) in experiment [18]. In addition, the MIC was 2 µg/mL (≈ 5.47 µM) against Staphylococcus aureus [19], 1 µg/mL (≈ 2.74 µM) against Staphylococcus aureus [20], 4 µg/mL (≈ 10.9 µM) against Staphylococcus aureus [23] and 8 µg/mL (≈ 21.9 µM) in experiment [24].
With `C=C[C@]1(C)C[C@@H](OC(=O)CS[C@@H]2C[C@H]3CC[C@@H](C2)N3C)[C@]2(C)[C@H](C)CC[C@]3(CCC(=O)[C@H]32)[C@@H](C)[C@@H]1O` [RETAPAMULIN], the MIC in the experiment on Streptococcus pyogenes worked out at 0.016 µg/mL (≈ 0.0309 µM); in the experiment on Staphylococcus aureus [25], 0.12 µg/mL (≈ 0.232 µM).
Consider `C=C[C@]1(C)C[C@@H](OC(=O)CSC(C)(C)CNC(=O)[C@H](N)C(C)C)[C@]2(C)[C@H](C)CC[C@]3(CCC(=O)[C@H]32)[C@@H](C)[C@@H]1O` [VALNEMULIN], for which inhibition of growth against Brachyspira pilosicoli (MIC) required 0.03 µg/mL (≈ 0.0531 µM).
